Measurements as given in article PMC5467235, “Variation in auxin sensing guides AUX/IAA transcriptional repressor ubiquitylation and destruction” (Nature Communications, 2017).
Positions count from the first letter of the chain named.

Columns and labels:
[1] = biological target: T1, AFB2-IAA19 (yeast two-hybrid) (Arabidopsis thaliana, UniProt O24409+Q9LW29); assay: yeast two-hybrid, beta-galactosidase reporter; format: cell-based; details: auxin-dependent association in yeast; low micromolar IAA
T1 construct: LexA DBD-AFB2 and AD-IAA19 fusions in yeast diploids
T1 sequence (Q9LW29 1-575): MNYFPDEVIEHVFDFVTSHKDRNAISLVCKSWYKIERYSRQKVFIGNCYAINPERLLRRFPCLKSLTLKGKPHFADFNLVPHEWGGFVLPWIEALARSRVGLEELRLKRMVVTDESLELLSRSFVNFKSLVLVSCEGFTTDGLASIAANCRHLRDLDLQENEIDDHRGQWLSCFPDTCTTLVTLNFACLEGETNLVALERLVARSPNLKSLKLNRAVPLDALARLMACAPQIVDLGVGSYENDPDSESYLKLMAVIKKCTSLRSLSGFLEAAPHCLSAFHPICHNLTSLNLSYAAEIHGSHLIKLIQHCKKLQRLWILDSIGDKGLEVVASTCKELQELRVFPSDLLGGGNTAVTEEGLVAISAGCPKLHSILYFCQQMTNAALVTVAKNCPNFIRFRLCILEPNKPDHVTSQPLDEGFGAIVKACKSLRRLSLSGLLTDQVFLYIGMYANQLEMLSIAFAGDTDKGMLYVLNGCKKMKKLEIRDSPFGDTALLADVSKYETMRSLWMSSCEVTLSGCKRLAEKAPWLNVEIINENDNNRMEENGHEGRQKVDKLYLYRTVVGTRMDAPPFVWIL
T1 sequence (O24409 1-197): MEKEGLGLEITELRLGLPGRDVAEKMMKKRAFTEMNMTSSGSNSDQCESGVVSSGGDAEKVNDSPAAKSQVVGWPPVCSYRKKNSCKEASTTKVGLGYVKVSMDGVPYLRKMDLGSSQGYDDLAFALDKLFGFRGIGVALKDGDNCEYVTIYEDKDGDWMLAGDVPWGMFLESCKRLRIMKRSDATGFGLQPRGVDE

[2] = biological target: T2, AFB2-IAA6 (yeast two-hybrid) (Arabidopsis thaliana, UniProt Q38824+Q9LW29); assay: yeast two-hybrid, beta-galactosidase reporter; format: cell-based; details: auxin-dependent association in yeast; low micromolar IAA
T2 construct: LexA DBD-AFB2 and AD-IAA6 fusions in yeast diploids
T2 sequence (Q9LW29 1-575): T1 sequence (Q9LW29 1-575)
T2 sequence (Q38824 1-189): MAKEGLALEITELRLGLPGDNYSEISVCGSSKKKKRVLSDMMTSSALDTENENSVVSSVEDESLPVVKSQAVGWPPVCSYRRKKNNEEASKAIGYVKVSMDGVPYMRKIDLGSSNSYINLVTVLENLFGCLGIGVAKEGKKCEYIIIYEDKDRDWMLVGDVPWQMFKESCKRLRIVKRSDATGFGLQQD

[3] = biological target: T3, ASK1-TIR1-IAA19 co-receptor complex (TIR1-IAA19) (Arabidopsis thaliana, UniProt O24409+Q570C0, O24409:P76S); assay: one-point [3H]IAA saturation binding; details: labelled compound; 200 nM [3H]IAA; msg2-1 degron mutant
T3 construct: ASK1-TIR1 from insect cells (Sf9 or Hi5), purified; IAA19 N-terminally GST-tagged from E. coli, full length; with SKP1-like protein 1A
T3 sequence (Q570C0 1-594): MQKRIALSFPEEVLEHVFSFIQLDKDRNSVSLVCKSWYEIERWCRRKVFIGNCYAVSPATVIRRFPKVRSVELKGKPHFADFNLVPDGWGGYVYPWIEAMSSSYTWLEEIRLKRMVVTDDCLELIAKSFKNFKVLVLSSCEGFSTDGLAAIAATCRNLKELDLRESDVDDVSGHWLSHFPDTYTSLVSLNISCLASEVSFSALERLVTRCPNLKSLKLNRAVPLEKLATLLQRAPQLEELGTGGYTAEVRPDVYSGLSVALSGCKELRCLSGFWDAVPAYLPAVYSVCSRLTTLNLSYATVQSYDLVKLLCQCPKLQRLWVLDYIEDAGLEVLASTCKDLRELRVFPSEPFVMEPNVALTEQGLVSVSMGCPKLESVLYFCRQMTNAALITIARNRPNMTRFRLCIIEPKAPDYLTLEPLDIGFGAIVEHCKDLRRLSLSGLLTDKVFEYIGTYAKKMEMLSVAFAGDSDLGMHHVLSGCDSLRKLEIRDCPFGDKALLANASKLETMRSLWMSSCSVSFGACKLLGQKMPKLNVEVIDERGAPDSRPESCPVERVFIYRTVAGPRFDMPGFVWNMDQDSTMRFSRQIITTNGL
T3 sequence (O24409 1-197 P76S): T1 sequence (O24409 1-197) with P76S
T3 sequence (Q39255 1-160 partner): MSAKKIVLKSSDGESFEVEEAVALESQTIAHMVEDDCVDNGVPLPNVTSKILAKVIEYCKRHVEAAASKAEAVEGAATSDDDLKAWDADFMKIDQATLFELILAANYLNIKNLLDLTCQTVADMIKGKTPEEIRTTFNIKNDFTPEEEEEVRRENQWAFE

[4] = biological target: T4, ASK1-TIR1-IAA19 co-receptor complex (TIR1-IAA19) (Arabidopsis thaliana, UniProt O24409+Q570C0); assay: [3H]IAA saturation radioligand binding
T4 construct: ASK1-TIR1 from insect cells (Sf9 or Hi5), purified; IAA19 N-terminally GST-tagged from E. coli, full length; with SKP1-like protein 1A
T4 sequence (Q570C0 1-594): T3 sequence (Q570C0 1-594)
T4 sequence (O24409 1-197): T1 sequence (O24409 1-197)
T4 sequence (Q39255 1-160 partner): T3 sequence (Q39255 1-160 partner)

[5] = biological target: T4, ASK1-TIR1-IAA19 co-receptor complex (TIR1-IAA19); assay: homologous competition radioligand binding
[6] = biological target: T5, ASK1-TIR1-IAA6 co-receptor complex (TIR1-IAA6) (Arabidopsis thaliana, UniProt Q38824+Q570C0); assay: homologous competition radioligand binding
T5 construct: ASK1-TIR1 from insect cells (Sf9 or Hi5), purified; IAA6 N-terminally GST-tagged from E. coli, full length; with SKP1-like protein 1A
T5 sequence (Q570C0 1-594): T3 sequence (Q570C0 1-594)
T5 sequence (Q38824 1-189): T2 sequence (Q38824 1-189)
T5 sequence (Q39255 1-160 partner): T3 sequence (Q39255 1-160 partner)

[7] = biological target: T6, AFB1-IAA6 (yeast two-hybrid) (Arabidopsis thaliana, UniProt Q38824+Q9ZR12); assay: yeast two-hybrid, beta-galactosidase reporter; format: cell-based; details: auxin-dependent association in yeast; low micromolar IAA
T6 construct: gene GRH1; LexA DBD-AFB1 and AD-IAA6 fusions in yeast diploids
T6 sequence (Q9ZR12 1-585): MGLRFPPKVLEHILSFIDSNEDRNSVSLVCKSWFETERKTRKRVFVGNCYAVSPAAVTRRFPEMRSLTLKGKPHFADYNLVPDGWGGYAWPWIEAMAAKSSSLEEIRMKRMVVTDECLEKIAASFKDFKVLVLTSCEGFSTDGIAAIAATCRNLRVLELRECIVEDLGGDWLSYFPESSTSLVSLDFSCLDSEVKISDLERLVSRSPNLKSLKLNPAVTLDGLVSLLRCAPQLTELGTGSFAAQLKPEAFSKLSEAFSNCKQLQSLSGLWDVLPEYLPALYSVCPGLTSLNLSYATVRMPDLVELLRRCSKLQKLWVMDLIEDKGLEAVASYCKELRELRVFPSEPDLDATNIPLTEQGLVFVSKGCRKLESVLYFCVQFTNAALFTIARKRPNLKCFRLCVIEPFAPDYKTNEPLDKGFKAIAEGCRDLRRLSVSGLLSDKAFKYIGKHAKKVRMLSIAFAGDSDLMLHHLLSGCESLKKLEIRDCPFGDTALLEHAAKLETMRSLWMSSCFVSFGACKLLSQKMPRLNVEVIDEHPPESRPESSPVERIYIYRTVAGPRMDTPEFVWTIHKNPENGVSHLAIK
T6 sequence (Q38824 1-189): T2 sequence (Q38824 1-189)

[8] = biological target: T5, ASK1-TIR1-IAA6 co-receptor complex (TIR1-IAA6); assay: [3H]IAA saturation radioligand binding
[9] = biological target: T4, ASK1-TIR1-IAA19 co-receptor complex (TIR1-IAA19); assay: homologous competition radioligand binding; details: unlabelled IAA against 25 nM [3H]IAA
[10] = biological target: T7, AFB1-IAA19 (yeast two-hybrid) (Arabidopsis thaliana, UniProt O24409+Q9ZR12); assay: yeast two-hybrid, beta-galactosidase reporter; format: cell-based; details: auxin-dependent association in yeast; low micromolar IAA
T7 construct: gene GRH1; LexA DBD-AFB1 and AD-IAA19 fusions in yeast diploids
T7 sequence (Q9ZR12 1-585): T6 sequence (Q9ZR12 1-585)
T7 sequence (O24409 1-197): T1 sequence (O24409 1-197)

[11] = biological target: T8, ASK1-TIR1-IAA6 co-receptor complex (TIR1-IAA6) (Arabidopsis thaliana, UniProt Q38824+Q570C0, Q38824:C78R); assay: one-point [3H]IAA saturation binding; details: labelled compound; 200 nM [3H]IAA; shy1-1 degron mutant
T8 construct: ASK1-TIR1 from insect cells (Sf9 or Hi5), purified; IAA6 N-terminally GST-tagged from E. coli, full length; with SKP1-like protein 1A
T8 sequence (Q570C0 1-594): T3 sequence (Q570C0 1-594)
T8 sequence (Q38824 1-189 C78R): T2 sequence (Q38824 1-189) with C78R
T8 sequence (Q39255 1-160 partner): T3 sequence (Q39255 1-160 partner)

[12] = biological target: T5, ASK1-TIR1-IAA6 co-receptor complex (TIR1-IAA6); assay: homologous competition radioligand binding; details: unlabelled IAA against 50 nM [3H]IAA

- Kd [4]: 15.6 ± 2 nM
- Ki [5]: 33.5 ± 3.7 nM
- Ki [6]: 99.3 ± 11.9 nM
- Kd [8]: 72 ± 10.5 nM
SMILES: O=C(O)Cc1c[nH]c2ccccc12 [IAA]
- yeast two-hybrid, beta-galactosidase reporter [1]: IAA6 and IAA19 interacted in an auxin-dependent manner with TIR1, AFB1 and AFB2
- yeast two-hybrid, beta-galactosidase reporter [2]: IAA6 and IAA19 interacted in an auxin-dependent manner with TIR1, AFB1 and AFB2
- specific binding at 200 nM [3]: IAA6^C78R/shy1-1 and IAA19^P76S/msg2-1 mutants that mimic stabilized version of the proteins affect significantly
- yeast two-hybrid, beta-galactosidase reporter [7]: IAA6 and IAA19 interacted in an auxin-dependent manner with TIR1, AFB1 and AFB2
- IC50 [9]: determined IC50 and Ki values for each of the complexes
- yeast two-hybrid, beta-galactosidase reporter [10]: IAA6 and IAA19 interacted in an auxin-dependent manner with TIR1, AFB1 and AFB2
- specific binding at 200 nM [11]: IAA6^C78R/shy1-1 and IAA19^P76S/msg2-1 mutants that mimic stabilized version of the proteins affect significantly
- IC50 [12]: determined IC50 and Ki values for each of the complexes
